Measurements taken from patent publication US4436751A, “Nitrobenzyl monates antibacterial compounds” (Beecham Group Limited, priority 1980, dated 1984).
≈ marks a conversion by molar mass, not a printed value. Read-outs that look alike come from different tables or passages of the source.

How the values were obtained:
Assay type in all cases: cell-based
M. hyorhinis ATCC 23234 = experiment: Anti-mycoplasmal MIC in vitro, Friis broth agarose (Table 1); settings: Mesomycoplasma hyorhinis, ATCC23234, 144 h
M. suipneumoniae Str. 11 = experiment: as above; settings: Mesomycoplasma hyopneumoniae, STR.11, 144 h
[1] = tested on: Neisseria catarrhalis 1502; experiment: Human bacteria MIC, nutrient agar with chocolated horse blood (Table 3)
Method: (§1) The values were determined by serial dilutions in nutrient agar with 5% chocolated horse blood after incubations for 18 hours at 37° C.

Strep. 2733-B = experiment: as above
Method: as §1

Bord. bronchiseptica BO9 = experiment: Veterinary bacteria MIC, Diagnostic Sensitivity Test Agar (Table 2); settings: Bordetella bronchiseptica
Method: (§2) The values were determined using a two fold serial dilutions in Diagnostic Sensitivity Test Agar with an inoculum of 10^4 organisms and incubation for 18 hours at 37° C.

[2] = tested on: Corynebacterium pyogenes CY1; experiment: as above; settings: Trueperella pyogenes, CY1, 18 h
Method: as §2

S. dublin S7 = experiment: as above; settings: Salmonella enterica, S7, 18 h
Method: as §2

Strep. dylgalactiae SPD1 = experiment: as above
Method: as §2

E. Coli NCTC 10418 = experiment: as above; settings: Escherichia coli, NCTC10418, 18 h
Method: as §2

E. Coli E1 = experiment: as above; settings: Escherichia coli, 18 h
Method: as §2

Strep. agalactiae SPA1 = experiment: as above; settings: Streptococcus agalactiae
Method: as §2

Bord. bronchiseptica BO8 = experiment: as above; settings: Bordetella bronchiseptica, BO8, 18 h
Method: as §2

Staph. aureus 152 = experiment: as above
Method: as §2

S. typhimurium S18 = experiment: as above; settings: Salmonella enterica, TYPHIMURIUM, 18 h
Method: as §2

Past. haemolytica PA5 = experiment: as above; settings: Mannheimia haemolytica
Method: as §2

Staph. aureus Oxford = experiment: as above; settings: Staphylococcus aureus
Method: as §2

Staph. aureus B4 = experiment: as above; settings: Staphylococcus aureus
Method: as §2

M. bovis RCTC 10131 = experiment: microbe, parasite or virus in culture; settings: RCTC10131, 144 h
M. dispar RCTC 10125 = experiment: Anti-mycoplasmal MIC in vitro, Friis broth agarose (Table 1); settings: 144 h
M. suipneumoniae JF 435 = experiment: as above; settings: Mesomycoplasma hyopneumoniae, JF435, 144 h
[3] = tested on: M. suipneumoniae PW/C/210; experiment: as above; settings: Mesomycoplasma hyopneumoniae, 144 h
M. suipneumoniae OCD 1 = experiment: as above; settings: Mesomycoplasma hyopneumoniae, OCD1, 144 h
[4] = tested on: M. suipneumoniae J2206/183b; experiment: as above; settings: Mesomycoplasma hyopneumoniae, 144 h
M. pneumoniae ATCC 15492 = experiment: as above; settings: Mycoplasmoides pneumoniae, ATCC15492, 144 h
M. suipneumoniae HR(2) = experiment: as above; settings: Mesomycoplasma hyopneumoniae, 144 h
[5] = tested on: M. suipneumoniae NCTC 10110; experiment: as above; settings: Mesomycoplasma hyopneumoniae, NCTC10110, 144 h
[6] = tested on: M. bovigenitalium ATOC 14173; experiment: as above; settings: 144 h
E. coli ESS = experiment: Human bacteria MIC, nutrient agar with chocolated horse blood (Table 3); settings: Escherichia coli, 18 h
Method: as §1

[7] = Bord. bronchiseptica BO9, DST Agar, 10^4 organisms, 18 hours 37° C., read-out: MIC
[8] = Strep. agalactiae SPA1, DST Agar, 10^4 organisms, 18 hours 37° C., read-out: MIC
[9] = Past. haemolytica PA5, DST Agar, 10^4 organisms, 18 hours 37° C., read-out: MIC
[10] = Staph. aureus B4, DST Agar, 10^4 organisms, 18 hours 37° C., read-out: MIC
[11] = Staphylococcus aureus, 152, 18 h

For `C/C(=C\C(=O)OCc1ccc([N+](=O)[O-])cc1Cl)CC1OCC(CC2OC2C(C)C(C)O)C(O)C1O` (centres unmarked) [Example 11, 2-chloro-4-nitrobenzyl monate A], the MIC (M. hyorhinis ATCC 23234) was 0.5 µg/mL (≈ 0.973 µM), the MIC (M. suipneumoniae Str. 11) was 1 µg/mL (≈ 1.95 µM) and the MIC ([1]; Neisseria, 1502, 18 h) was 0.5 µg/mL (≈ 0.973 µM). The MIC (Strep. 2733-B; Strep. 2733-B, nutrient agar 5% chocolated horse blood, 18 hours 37° C., read-out: MIC) was 1 µg/mL (≈ 1.95 µM), the MIC (Bord. bronchiseptica BO9; [7]) was 2.5 µg/mL (≈ 4.86 µM) and the MIC [2] was over 80 µg/mL. It also gave an MIC (S. dublin S7) of 80 µg/mL (≈ 156 µM), an MIC (Strep. dylgalactiae SPD1; Strep. dylgalactiae SPD1, DST Agar, 10^4 organisms, 18 hours 37° C., read-out: MIC) of 0.156 µg/mL (≈ 0.304 µM) and an MIC (E. Coli NCTC 10418) of 80 µg/mL (≈ 156 µM). For the same compound, the MIC (E. Coli E1) was 80 µg/mL (≈ 156 µM), the MIC (Strep. agalactiae SPA1; [8]) was 0.156 µg/mL (≈ 0.304 µM) and the MIC (Bord. bronchiseptica BO8) was 10 µg/mL (≈ 19.5 µM). The MIC (Staph. aureus 152; Staphylococcus aureus, Staph. aureus 152, DST Agar, 10^4 organisms, 18 hours 37° C., read-out: MIC) was 0.07 µg/mL (≈ 0.136 µM), the MIC (S. typhimurium S18) was 80 µg/mL (≈ 156 µM) and the MIC (Past. haemolytica PA5; [9]) was 2.5 µg/mL (≈ 4.86 µM). For the same compound, the MIC (Staph. aureus Oxford; Staph. aureus Oxford, DST Agar, 10^4 organisms, 18 hours 37° C., read-out: MIC) was 0.07 µg/mL (≈ 0.136 µM), the MIC (Staph. aureus B4; [10]) was 0.156 µg/mL (≈ 0.304 µM) and the MIC (M. bovis RCTC 10131) was 0.025 µg/mL (≈ 0.0486 µM). For the same compound, the MIC (M. dispar RCTC 10125) was 0.5 µg/mL (≈ 0.973 µM), the MIC (M. suipneumoniae JF 435) was 2.5 µg/mL (≈ 4.86 µM) and the MIC [3] was 1 µg/mL (≈ 1.95 µM). It also gave an MIC (M. suipneumoniae OCD 1) of 2.5 µg/mL (≈ 4.86 µM), an MIC ([4]; J2206/183B) of 1 µg/mL (≈ 1.95 µM) and an MIC (M. pneumoniae ATCC 15492) of 2.5 µg/mL (≈ 4.86 µM). The MIC (M. suipneumoniae HR(2)) was 2.5 µg/mL (≈ 4.86 µM), the MIC [5] was 1 µg/mL (≈ 1.95 µM) and the MIC [6] was 0.05 µg/mL (≈ 0.0973 µM).
Compound `C/C(=C\C(=O)OCc1ccc([N+](=O)[O-])c([N+](=O)[O-])c1)CC1OCC(CC2OC2C(C)C(C)O)C(O)C1O` (centres unmarked) [Example 9, 3,4-dinitrobenzyl monate A] has an MIC (M. hyorhinis ATCC 23234) of 0.25 µg/mL (≈ 0.477 µM), an MIC (M. suipneumoniae Str. 11) of 0.25 µg/mL (≈ 0.477 µM) and an MIC (E. coli ESS) of 1 µg/mL (≈ 1.91 µM). For the same compound, the MIC ([1]; Neisseria, 1502, 18 h) was 0.05 µg/mL (≈ 0.0953 µM), the MIC (Strep. 2733-B; 18 h) was 2.5 µg/mL (≈ 4.77 µM) and the MIC (Bord. bronchiseptica BO9; BO9, 18 h) was 5 µg/mL (≈ 9.53 µM). For the same compound, the MIC [2] was over 80 µg/mL, the MIC (S. dublin S7) was over 80 µg/mL and the MIC (Strep. dylgalactiae SPD1; 18 h) was 0.07 µg/mL (≈ 0.133 µM). It also gave an MIC (E. Coli NCTC 10418) of 80 µg/mL (≈ 153 µM), an MIC (E. Coli E1) of 80 µg/mL (≈ 153 µM) and an MIC (Strep. agalactiae SPA1; SPA1, 18 h) of 0.312 µg/mL (≈ 0.595 µM). The MIC (Bord. bronchiseptica BO8) was 10 µg/mL (≈ 19.1 µM), the MIC (Staph. aureus 152; [11]) was 0.312 µg/mL (≈ 0.595 µM) and the MIC (S. typhimurium S18) was 80 µg/mL (≈ 153 µM). The MIC (Past. haemolytica PA5; PA5, 18 h) was 5 µg/mL (≈ 9.53 µM), the MIC (Staph. aureus Oxford; 18 h) was 0.312 µg/mL (≈ 0.595 µM) and the MIC (Staph. aureus B4; B4, 18 h) was 0.625 µg/mL (≈ 1.19 µM). The MIC (M. bovis RCTC 10131) was at most 0.01 µg/mL, the MIC (M. dispar RCTC 10125) was 0.025 µg/mL (≈ 0.0477 µM) and the MIC (M. suipneumoniae JF 435) was 1 µg/mL (≈ 1.91 µM). It also gave an MIC [3] of 0.25 µg/mL (≈ 0.477 µM), an MIC (M. suipneumoniae OCD 1) of 0.5 µg/mL (≈ 0.953 µM) and an MIC ([4]; J2206/183B) of 1 µg/mL (≈ 1.91 µM). It also gave an MIC (M. suipneumoniae HR(2)) of 0.5 µg/mL (≈ 0.953 µM), an MIC [5] of 0.5 µg/mL (≈ 0.953 µM) and an MIC [6] of at most 0.01 µg/mL.
With `C/C(=C\C(=O)OCc1cccc([N+](=O)[O-])c1C)CC1OCC(CC2OC2C(C)C(C)O)C(O)C1O` (centres unmarked) [Example 8, 2-methyl-3-nitrobenzyl monate A] the MIC (M. hyorhinis ATCC 23234) was 0.1 µg/mL (≈ 0.203 µM), the MIC (M. suipneumoniae Str. 11) was 0.1 µg/mL (≈ 0.203 µM) and the MIC (E. coli ESS) was 1 µg/mL (≈ 2.03 µM). The MIC ([1]; Neisseria catarrhalis 1502, nutrient agar 5% chocolated horse blood, 18 hours 37° C., read-out: MIC) was 0.25 µg/mL (≈ 0.507 µM), the MIC (Bord. bronchiseptica BO9; [7]) was 5 µg/mL (≈ 10.1 µM) and the MIC [2] was over 80 µg/mL. The MIC (S. dublin S7) was over 80 µg/mL, the MIC (Strep. dylgalactiae SPD1; 18 h) was 0.312 µg/mL (≈ 0.632 µM) and the MIC (E. Coli NCTC 10418) was over 80 µg/mL. For the same compound, the MIC (E. Coli E1) was over 80 µg/mL, the MIC (Strep. agalactiae SPA1; [8]) was 0.625 µg/mL (≈ 1.27 µM) and the MIC (Bord. bronchiseptica BO8) was 40 µg/mL (≈ 81 µM). The MIC (Staph. aureus 152; [11]) was 0.312 µg/mL (≈ 0.632 µM), the MIC (S. typhimurium S18) was over 80 µg/mL and the MIC (Past. haemolytica PA5; [9]) was 10 µg/mL (≈ 20.3 µM). It also gave an MIC (Staph. aureus Oxford; 18 h) of 0.312 µg/mL (≈ 0.632 µM), an MIC (Staph. aureus B4; [10]) of 0.625 µg/mL (≈ 1.27 µM) and an MIC (M. bovis RCTC 10131) of under 0.01 µg/mL. For the same compound, the MIC (M. dispar RCTC 10125; M. dispar RCTC 10125, in vitro, 6 days 37° C., read-out: MIC) was 0.05 µg/mL (≈ 0.101 µM), the MIC (M. suipneumoniae JF 435) was 0.1 µg/mL (≈ 0.203 µM) and the MIC [3] was 0.1 µg/mL (≈ 0.203 µM). The MIC (M. suipneumoniae OCD 1; M. suipneumoniae OCD 1, in vitro, 6 days 37° C., read-out: MIC) was 0.25 µg/mL (≈ 0.507 µM), the MIC ([4]; M. suipneumoniae J2206/183b, in vitro, 6 days 37° C., read-out: MIC) was 0.25 µg/mL (≈ 0.507 µM) and the MIC (M. suipneumoniae HR(2)) was 0.1 µg/mL (≈ 0.203 µM). It also gave an MIC [5] of 0.1 µg/mL (≈ 0.203 µM) and an MIC ([6]; M. bovigenitalium ATOC 14173, in vitro, 6 days 37° C., read-out: MIC) of 0.025 µg/mL (≈ 0.0507 µM).
